From patent US20250230165A1, “HETEROCYCLIC COMPOUNDS FOR USE IN THE TREATMENT OF CANCER” (ARTIOS PHARMA LIMITED, priority 2021, published 2025)

Target: T1, Human Polθ polymerase domain (aa1820-2590) (Homo sapiens, UniProt O75417)
T1 construct: Human Polθ polymerase domain (aa1820-2590) was expressed in E. coli; made in house; host or cells: E. coli
T1 sequence (O75417 1820-2590): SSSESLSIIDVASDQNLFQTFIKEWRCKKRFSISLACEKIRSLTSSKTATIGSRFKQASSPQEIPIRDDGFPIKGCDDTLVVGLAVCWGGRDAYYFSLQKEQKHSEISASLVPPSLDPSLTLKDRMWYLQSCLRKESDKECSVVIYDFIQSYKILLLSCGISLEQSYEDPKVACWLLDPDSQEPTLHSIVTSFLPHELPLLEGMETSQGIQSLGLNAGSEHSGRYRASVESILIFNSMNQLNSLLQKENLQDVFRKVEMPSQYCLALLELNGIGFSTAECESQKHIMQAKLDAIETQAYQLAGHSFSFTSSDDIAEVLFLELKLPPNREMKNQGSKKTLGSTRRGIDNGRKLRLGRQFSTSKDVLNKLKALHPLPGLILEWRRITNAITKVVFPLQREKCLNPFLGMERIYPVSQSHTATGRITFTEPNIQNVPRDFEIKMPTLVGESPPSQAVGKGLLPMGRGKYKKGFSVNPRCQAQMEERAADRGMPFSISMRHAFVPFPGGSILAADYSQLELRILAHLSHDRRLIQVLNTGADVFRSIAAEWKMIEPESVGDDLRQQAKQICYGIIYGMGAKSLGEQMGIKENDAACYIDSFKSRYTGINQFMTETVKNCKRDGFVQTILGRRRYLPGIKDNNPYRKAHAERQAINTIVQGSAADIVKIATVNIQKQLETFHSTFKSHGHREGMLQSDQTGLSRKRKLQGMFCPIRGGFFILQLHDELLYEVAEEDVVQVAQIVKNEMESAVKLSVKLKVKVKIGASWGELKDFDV
Assay: Polθ Polymerase Domain Kinact/KI Assay (PicoGreen)
Format: biochemical
Conditions: 0.8 nM Polθ, 100 nM DNA substrate, kobs vs [I] fit for 2-step covalent inhibitor
Summary of the method: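 PicoGreen fluorescence read-out of primer extension; progress curves per inhibitor concentration fitted for kobs, then kobs vs [I] fitted to a two-step covalent model to give Kinact and KI. Conditions: 0.8 nM enzyme, 100 nM DNA substrate, […].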

SMILES	Kinact/Kl [M⁻¹ s⁻¹]
Cc1cc(C(F)(F)F)cc(N2C(=O)C[C@@H]3CN(Cc4ccc5c(c4)CCN(C(=O)/C=C/CN(C)C)C5)c4c(F)cccc4N(C)C(=O)[C@H]32)n1 [Example 149, (3aR, 11aS)-5-((2-((E)-4-(dimethylamino)but-2-enoyl)-1,2,3,4-tetrahydroisoquinolin-6-yl)methyl)-6-fluoro-10-methyl-1-(6-methyl-4-(trifluoromethyl)pyridin-2-yl)-1,3a,4,5,10,11a-hexahydro-2H-benzo[b]pyrrolo[2,3-f][1,4]diazocine-2,11(3H)-dione]	1.08e+06
C=C(CN(C)C)C(=O)N1CC(c2ccc(CN3C[C@H]4CC(=O)N(c5cc(C(F)(F)F)cc(C)n5)[C@@H]4C(=O)N(C)c4cccc(F)c43)cc2)C1 [Example 151, (3aR, 11aS)-5-(4-(1-(2-((dimethylamino)methyl)acryloyl)azetidin-3-yl)benzyl)-6-fluoro-10-methyl-1-(6-methyl-4-(trifluoromethyl)pyridin-2-yl)-1,3a,4,5,10,11a-hexahydro-2H-benzo[b]pyrrolo[2,3-f][1,4]diazocine-2,11(3H)-dione]	2.04e+06
C=C(CN(C)C)C(=O)N1CC(c2cccc(CN3C[C@H]4CC(=O)N(c5cc(C(F)(F)F)cc(C)n5)[C@@H]4C(=O)N(C)c4cccc(F)c43)c2)C1 [Example 152, (3aR, 11aS)-5-(3-(1-(2-((dimethylamino)methyl)acryloyl)azetidin-3-yl)benzyl)-6-fluoro-10-methyl-1-(6-methyl-4-(trifluoromethyl)pyridin-2-yl)-1,3a,4,5,10,11a-hexahydro-2H-benzo[b]pyrrolo[2,3-f][1,4]diazocine-2,11(3H)-dione]	5.05e+06
C=C(CN(C)C)C(=O)N1Cc2ccc(CN3C[C@H]4CC(=O)N(c5cc(C(F)(F)F)cc(C)n5)[C@@H]4C(=O)N(C)c4cccc(F)c43)cc2C1 [Example 153, (3aR, 11aS)-5-((2-(2-((dimethylamino)methyl)acryloyl)isoindolin-5-yl)methyl)-6-fluoro-10-methyl-1-(6-methyl-4-(trifluoromethyl)pyridin-2-yl)-1,3a,4,5,10,11a-hexahydro-2H-benzo[b]pyrrolo[2,3-f][1,4]diazocine-2,11(3H)-dione]	1.51e+06
C=C(CN(C)C)C(=O)N1CCc2cc(CN3C[C@H]4CC(=O)N(c5cc(C(F)(F)F)cc(C)n5)[C@@H]4C(=O)N(C)c4cccc(F)c43)ccc2C1 [Example 154, (3aR, 11aS)-5-((2-(2-((dimethylamino)methyl)acryloyl)-1,2,3,4-tetrahydroisoquinolin-6-yl)methyl)-6-fluoro-10-methyl-1-(6-methyl-4-(trifluoromethyl)pyridin-2-yl)-1,3a,4,5,10,11a-hexahydro-2H-benzo[b]pyrrolo[2,3-f][1,4]diazocine-2,11(3H)-dione]	2.3e+06
C=C(CN(C)C)C(=O)N1Cc2ccc(CN3C[C@H]4CC(=O)N(c5cc(C(F)(F)F)cc(C)n5)[C@@H]4C(=O)N(C)c4cccc(Cl)c43)cc2C1 [Example 163, (3aR,11aS)-6-chloro-5-((2-(2-((dimethylamino)methyl)acryloyl)isoindolin-5-yl)methyl)-10-methyl-1-(6-methyl-4-(trifluoromethyl)pyridin-2-yl)-1,3a,4,5,10,11a-hexahydro-2H-benzo[b]pyrrolo[2,3-f][1,4]diazocine-2,11(3H)-dione]	1.82e+06

The remaining lines, values ahead:

Kinact/Kl [M⁻¹ s⁻¹]	SMILES
3.35e+06	C=C(CN(C)C)C(=O)N1CC(OCCCN2C[C@H]3CC(=O)N(c4cc(C(F)(F)F)cc(C)n4)[C@@H]3C(=O)N(C)c3cccc(F)c32)C1 [Example 150, (3aR, 11aS)-5-(3-((1-(2-((dimethylamino)methyl)acryloyl)azetidin-3-yl)oxy)propyl)-6-fluoro-10-methyl-1-(6-methyl-4-(trifluoromethyl)pyridin-2-yl)-1,3a,4,5,10,11a-hexahydro-2H-benzo[b]pyrrolo[2,3-f][1,4]diazocine-2,11(3H)-dione]
2.51e+06	Cc1cc(C(F)(F)F)cc(N2C(=O)C[C@@H]3CN(CC4CCC(C5CN(C(=O)/C=C/CN(C)C)C5)CC4)c4c(Cl)cccc4N(C)C(=O)[C@H]32)n1 (stereo partly drawn) [Example 155, (3aR, 11aS)-6-chloro-5-((4-(1-((E)-4-(dimethylamino)but-2-enoyl)azetidin-3-yl)cyclohexyl)methyl)-10-methyl-1-(6-methyl-4-(trifluoromethyl)pyridin-2-yl)-1,3a,4,5,10,11a-hexahydro-2H-benzo[b]pyrrolo[2,3-f][1,4]diazocine-2,11(3H)-dione]
3.95e+06	C=C(CN(C)C)C(=O)N1CC(OCCCN2C[C@H]3CC(=O)N(c4cc(C(F)(F)F)cc(C)n4)[C@@H]3C(=O)N(C)c3cccc(Cl)c32)C1 [Example 156, (3aR,11aS)-6-chloro-5-(3-((1-(2-((dimethylamino)methyl)acryloyl)azetidin-3-yl)oxy)propyl)-10-methyl-1-(6-methyl-4-(trifluoromethyl)pyridin-2-yl)-1,3a,4,5,10,11a-hexahydro-2H-benzo[b]pyrrolo[2,3- ][1,4]diazocine-2,11(3H)-dione]
1.57e+06	C=C(CN(C)C)C(=O)N1CCC(OCCN2C[C@H]3CC(=O)N(c4cc(C(F)(F)F)cc(C)n4)[C@@H]3C(=O)N(C)c3cccc(Cl)c32)CC1 [Example 157, (3aR,11aS)-6-chloro-5-(2-((1-(2-((dimethylamino)methyl)acryloyl)piperidin-4-yl)oxy)ethyl)-10-methyl-1-(6-methyl-4-(trifluoromethyl)pyridin-2-yl)-1,3a,4,5,10,11a-hexahydro-2H-benzo[b]pyrrolo[2,3-f][1,4]diazocine-2,11(3H)-dione]
3.72e+06	C=C(CN(C)C)C(=O)N1CCC(CCCN2C[C@H]3CC(=O)N(c4cc(C(F)(F)F)cc(C)n4)[C@@H]3C(=O)N(C)c3cccc(Cl)c32)CC1 [Example 158, (3aR,11aS)-6-chloro-5-(3-(1-(2-((dimethylamino)methyl)acryloyl)piperidin-4-yl)propyl)-10-methyl-1-(6-methyl-4-(trifluoromethyl)pyridin-2-yl)-1,3a,4,5,10,11a-hexahydro-2H-benzo[b]pyrrolo[2,3-f][1,4]diazocine-2,11(3H)-dione]
3.07e+06	C=C(CN(C)C)C(=O)N1CCn2cc(CN3C[C@H]4CC(=O)N(c5cc(C(F)(F)F)cc(C)n5)[C@@H]4C(=O)N(C)c4cccc(Cl)c43)nc2C1 [Example 159]
2.3e+06	C=C(CN(C)C)C(=O)N1CC(C2CCC(CN3C[C@H]4CC(=O)N(c5cc(C(F)(F)F)cc(C)n5)[C@@H]4C(=O)N(C)c4cccc(Cl)c43)CC2)C1 (stereo partly drawn) [Example 160, (3aR,11aS)-6-chloro-5-((4-(1-(2-((dimethylamino)methyl)acryloyl)azetidin-3-yl)cyclohexyl)methyl)-10-methyl-1-(6-methyl-4-(trifluoromethyl)pyridin-2-yl)-1,3a,4,5,10,11a-hexahydro-2H-benzo[b]pyrrolo[2,3-f][1,4]diazocine-2,11(3H)-dione]
5.08e+06	C=C(CN(C)C)C(=O)N1CC(CCCCN2C[C@H]3CC(=O)N(c4cc(C(F)(F)F)cc(C)n4)[C@@H]3C(=O)N(C)c3cccc(Cl)c32)C1 [Example 161, (3aR, 11aS)-6-chloro-5-(4-(1-(2-((dimethylamino)methyl)acryloyl)azetidin-3-yl)butyl)-10-methyl-1-(6-methyl-4-(trifluoromethyl)pyridin-2-yl)-1,3a,4,5,10,11a-hexahydro-2H-benzo[b]pyrrolo[2,3-f][1,4]diazocine-2,11(3H)-dione]
2.95e+06	C=C(CN(C)C)C(=O)N1CC(COCCN2C[C@H]3CC(=O)N(c4cc(C(F)(F)F)cc(C)n4)[C@@H]3C(=O)N(C)c3cccc(Cl)c32)C1 [Example 162, (3aR,11aS)-6-chloro-5-(2-((1-(2-((dimethylamino)methyl)acryloyl)azetidin-3-yl)methoxy)ethyl)-10-methyl-1-(6-methyl-4-(trifluoromethyl)pyridin-2-yl)-1,3a,4,5,10,11a-hexahydro-2H-benzo[b]pyrrolo[2,3-f][1,4]diazocine-2,11(3H)-dione]
2.38e+06	C=C(CN(C)C)C(=O)NC12CC(CN3C[C@H]4CC(=O)N(c5cc(C(F)(F)F)cc(C)n5)[C@@H]4C(=O)N(C)c4cccc(Cl)c43)(C1)C2 [Example 164, N-(3-(((3aR,11aS)-6-chloro-10-methyl-1-(6-methyl-4-(trifluoromethyl)pyridin-2-yl)-2,11-dioxo-1,2,3,3a,4, 10,11,11a-octahydro-5H-benzo[b]pyrrolo[2,3-f][1,4]diazocin-5-yl)methyl)bicyclo[1.1.1]pentan-1-yl)-2-((dimethylamino)methyl) acrylamide]
